How the values were obtained:
[1] = target: T1, BCL-2/BAK (Homo sapiens, UniProt P10415); assay: Screening on inhibitory activity for BCL-2/BAK binding (Cisbio HTRF kit)
T1 construct: purchased Cisbio
Description: 1.1 Screening on Inhibitory Activity for BCL-2/BAK Binding
500 nM Tag1-BCL-2 protein stock solution and 20 μM Tag2-BAK protein stock solution were diluted to 5 nM and 120 nM respectively with dilution buffer in kit (model: BCL-2/BAK (BH3) BINDING ASSAY KITS, from Cisbio). 5 μL of Tag1-BCL-2 protein diluent was added to each well, then different compounds dissolved with DMSO were added to the wells with a nanoliter pipettor, allowing the final compound concentrations to be 200 nM to 0.0488 nM (4-fold gradient for 7 concentrations in total). Blank control wells (without enzyme) and negative control wells (with enzyme, plus vehicle DMSO) were set, and 2 replicate wells were set. Finally, 5 μL of Tag2-BAK protein diluent was added to each well, and the mixture was mixed well by centrifugation and incubated at 25° C. for 15 min. 100× anti-Tag1-Eu^3+ and 100× anti-Tag2-XL665 were both diluted to 1× working concentration with the detection buffer in the kit. Anti-Tag1-Eu^3+ and anti-Tag2-XL665 were mixed well in a 1:1 ratio, and the mixture was added to wells at 5 μL/well, and incubated at 25° C. for 2 h or more. The plate was read using a PE Envision multi-functional microplate reader (excitation: […], emission: 665 nm) and IC50 (shown in table 1) was calculated by four-parameter fitting.

[2] = test system: RS4;11 cells; assay: Inhibitory effect on proliferation of RS4;11 cells (CCK-8); type: cell-based, human; conditions: Homo sapiens, RS4-11, 72 h
Description: Experimental Example 2: Inhibitory Effect of Compounds on Proliferation of RS4;11 Cells
RS4;11 cells (from Nanjing Cobioer) in logarithmic growth phase and good cell condition were added to a centrifuge tube and centrifuged at 1500 rpm for 3 min in a low speed centrifuge. The supernatant was discarded, and 5 mL of complete medium (RPMI basic medium+10 wt % fetal bovine serum (FBS)) was added using a pipette for cell resuspension. The cells were counted using a cell counter, diluted with complete medium to a cell density of 2×10^5 cells/mL, and added with an equivalent amount of RPMI basic medium to adjust the serum concentration to 5% and the cell density to 1×10^5 cells/mL for plate seeding. The cells were seeded on a 96-well plate at 100 μL/well using a pipettor, and incubated in an incubator at 37° C., 5% CO2 with saturated humidity. After 24 h of incubation, compounds were loaded using a nanoliter pipettor, 2 duplicate wells were set for each concentration, and cells without compound were used as negative controls. […] Inhibition rate (%)=(mean value of negative control group—mean value of experimental group)/(mean value of negative control group—mean value of blank group)×100%. A dose-response curve was fitted by four-parameter analysis, with the logarithm of compound concentration serving as abscissa and inhibition rate serving as ordinate, so that IC50 was calculated (FIG. 2).

[3] = target: T2, BCL-XL/BAK (Homo sapiens, UniProt Q07817); assay: Screening on inhibitory activity for BCL-XL/BAK binding (Cisbio HTRF kit)
T2 construct: purchased Cisbio
Description: 1.2 Screening on Inhibitory Activity for BCL-XL/BAK Binding
300 nM Tag1-BCL-XL protein stock solution and 10 μM Tag2-BAK protein stock solution were diluted to 2 nM and 80 nM respectively with dilution buffer in kit (model: BCL-XL/BAK (BH3) BINDING ASSAY KITS, from Cisbio). 5 μL of Tag1-BCL-XL protein diluent was added to each well, then different compounds dissolved with DMSO were added to the wells with a nanoliter pipettor, allowing the final compound concentrations to be 2000 nM to 0.488 nM (4-fold gradient for 7 concentrations in total). Blank control wells (without enzyme) and negative control wells (with enzyme, plus vehicle DMSO) were set, and 2 replicate wells were set. Finally, 5 μL of Tag2-BAK protein diluent was added to each well, and the mixture was mixed well by centrifugation and incubated at 25° C. for 15 min. 100× anti-Tag1-Eu^3+ and 100× anti-Tag2-XL665 were both diluted to 1× working concentration with the detection buffer in the kit. Anti-Tag1-Eu^3+ and anti-Tag2-XL665 were mixed well in a 1:1 ratio, and the mixture was added to wells at 5 µL/well, and incubated at 25° C. for 2 h or more. The plate was read using a PE Envision multi-functional microplate reader (excitation: […], emission: 665 nm) and IC50 (shown in table 1) was calculated by four-parameter fitting.

T2 sequence (Q07817 whole entry, species assumed): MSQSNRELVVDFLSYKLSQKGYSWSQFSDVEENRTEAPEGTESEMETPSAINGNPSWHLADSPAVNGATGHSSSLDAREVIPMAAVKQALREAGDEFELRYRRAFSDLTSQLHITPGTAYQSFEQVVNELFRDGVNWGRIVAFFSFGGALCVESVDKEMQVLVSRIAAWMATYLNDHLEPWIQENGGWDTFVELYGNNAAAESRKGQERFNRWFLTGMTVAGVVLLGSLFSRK
T1 sequence (P10415 whole entry, species assumed): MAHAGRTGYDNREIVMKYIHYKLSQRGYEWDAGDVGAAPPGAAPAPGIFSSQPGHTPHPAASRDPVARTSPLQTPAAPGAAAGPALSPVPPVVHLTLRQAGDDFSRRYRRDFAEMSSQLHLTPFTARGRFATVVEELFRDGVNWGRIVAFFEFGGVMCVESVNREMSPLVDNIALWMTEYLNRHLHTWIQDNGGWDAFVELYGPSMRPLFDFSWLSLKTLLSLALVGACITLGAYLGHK

| IC50 [1] | IC50 [2] | IC50 [3] | Structure (SMILES) |
| --- | --- | --- | --- |
| 2.59 nM | 4.3 nM | 211 nM | CC1(C)CCC(CN2CCN(c3ccc(C(=O)NS(=O)(=O)c4ccc(NCC5CN(C(=O)C(C)(C)C)CCO5)c([N+](=O)[O-])c4)c(Oc4cnc5[nH]ccc5c4)c3)CC2)=C(c2ccc(C(F)(F)F)cc2Cl)C1 (stereo not drawn) [Compound 50-1, 4-(4-{[2-(2-chloro-4-trifluoromethylphenyl)-4,4-dimethylcyclohex-1-enyl]methyl}-piperazin-1-yl)-N-({3-nitro-4-[((4-pivaloylmorpholin-2-yl)methyl)amino]phenyl}sulfonyl)-2-(1H-pyrrolo[2,3-b]pyridin-5-yloxy)-benzamide] |
| 2.81 nM | 6.8 nM | 220 nM | CC1(C)CCC(CN2CCN(c3ccc(C(=O)NS(=O)(=O)c4ccc(NC[C@H]5CCCOC5)c([N+](=O)[O-])c4)c(Oc4cnc5[nH]ccc5c4)c3)CC2)=C(c2ccc(C(F)(F)F)cc2Cl)C1 [Compound 42-1, (R)-4-(4-{[2-(2-chloro-4-trifluoromethylphenyl)-4,4-dimethylcyclohex-1-enyl]methyl}-piperazin-1-yl)-N-({3-nitro-4-[((tetrahydropyran-3-yl)methyl)amino]phenyl}sulfonyl)-2-(1H-pyrrolo[2,3-b]pyridin-5-yloxy)-benzamide] |
| 1.4 nM | 1.4 nM | 118 nM | CC1(C)CCC(CN2CCN(c3ccc(C(=O)NS(=O)(=O)c4ccc(NCC5CN(C=O)CCO5)c([N+](=O)[O-])c4)c(Oc4cnc5[nH]ccc5c4)c3)CC2)=C(c2ccc(C(F)(F)F)cc2Cl)C1 (stereo not drawn) [Compound 48-1, 4-(4-{[2-(2-chloro-4-trifluoromethylphenyl)-4,4-dimethylcyclohex-1-enyl]methyl}-piperazin-1-yl)-N-({3-nitro-4-[((N-formylmorpholin-2-yl)methyl)amino]phenyl}sulfonyl)-2-(1H-pyrrolo[2,3-b]pyridin-5-yloxy)-benzamide] |
| 3.83 nM | 7.2 nM | 729 nM | CC1(C)CCC(CN2CCN(c3ccc(C(=O)NS(=O)(=O)c4ccc(NCC5CCCN(S(C)(=O)=O)C5)c([N+](=O)[O-])c4)c(Oc4cnc5[nH]ccc5c4)c3)CC2)=C(c2ccc(C(F)(F)F)cc2Cl)C1 (stereo not drawn) [Compound 15-1] |
| 3.6 nM | 8.1 nM | 387 nM | CC1(C)CCC(CN2CCN(c3ccc(C(=O)NS(=O)(=O)c4ccc(NCC5CCCOC5)c([N+](=O)[O-])c4)c(Oc4cnc5[nH]ccc5c4)c3)CC2)=C(c2ccc(C(F)(F)F)cc2Cl)C1 (stereo not drawn) [Compound 13-1, 4-(4-{[2-(2-chloro-4-trifluoromethylphenyl)-4,4-dimethylcyclohex-1-enyl]methyl}-piperazin-1-yl)-N-({3-nitro-4-[(tetrahydro-2H-pyran-3-ylmethyl)amino]phenyl}sulfonyl)-2-(1H-pyrrolo[2,3-b]pyridin-5-yloxy)-benzamide] |
| 2.35 nM | 5.3 nM | 145 nM | COCC(=O)N1CCCC(CNc2ccc(S(=O)(=O)NC(=O)c3ccc(N4CCN(CC5=C(c6ccc(C(F)(F)F)cc6Cl)CC(C)(C)CC5)CC4)cc3Oc3cnc4[nH]ccc4c3)cc2[N+](=O)[O-])C1 (stereo not drawn) [Compound 58-1, 4-(4-{[2-(2-chloro-4-trifluoromethylphenyl)-4,4-dimethylcyclohex-1-enyl]methyl}-piperazin-1-yl)-N-({3-nitro-4-[((1-(2-methoxyacetyl)piperidin-3-yl)methyl)amino]phenyl}sulfonyl)-2-(1H-pyrrolo[2,3-b]pyridin-5-yloxy)-benzamide] |
| 2.35 nM | 4.1 nM | 145 nM | CC(C)C(=O)N1CCO[C@@H](CNc2ccc(S(=O)(=O)NC(=O)c3ccc(N4CCN(CC5=C(c6ccc(C(F)(F)F)cc6Cl)CC(C)(C)CC5)CC4)cc3Oc3cnc4[nH]ccc4c3)cc2[N+](=O)[O-])C1 [Compound 62-1, (S)-4-(4-{[2-(2-chloro-4-trifluoromethylphenyl)-4,4-dimethylcyclohex-1-enyl]methyl}-piperazin-1-yl)-N-({3-nitro-4-[((4-isobutyrylmorpholin-2-yl)methyl)amino]phenyl}sulfonyl)-2-(1H-pyrrolo[2,3-b]pyridin-5-yloxy)-benzamide] |

— US20250257064A1, “TRIFLUOROMETHYL-SUBSTITUTED SULFONAMIDE AS BCL-2-SELECTIVE INHIBITOR” (Chia Tai Tianqing Pharmaceutical Group Co., Ltd., priority 2018, published 2025)
